Read-outs that look alike come from different tables or passages of the source.
Assays:
[1] = system: TNFα release from THP-1 cells; experiment: TNFα release from LPS-stimulated THP-1 cells; type: cell-based; conditions: Homo sapiens, THP-1, 18 h
From the text: Compounds of the invention are screened for the ability to inhibit TNFα and IL-1β release from THP-1 cells stimulated with lipopolysaccharide (LPS) in vitro. The ability of compounds to inhibit TNFα and IL-1β release in this in vitro assay is correlated with the inhibition of p38 activity and TNFα and IL-1β expression in vivo, and is therefore an indicator of potential in vivo therapeutic activity (Lee J. C. et al, Ann. N.Y. Acad. Sci. 696: 149-170, 1993 and Nature, 372: 739-746, 1994).
THP-1 cells from ATCC (TIB202) are maintained at 37° C., 5% CO2 in RPMI 1640 media (MediaTech, Herndon, Va.) containing 4.5 g/L glucose, supplemented with 10% fetal bovine serum, 1% penicillin/streptomycin and 50 μM β-mercaptoethanol.
Test compounds are initially dissolved in RPMI media with 1% DMSO (v/v). Compounds are then serially diluted in RPMI media for all subsequent dilutions. The assay is performed under sterile conditions. THP-1 cells at a culture density of 6-8×10^5 cells/ml are collected and resuspended in the RPMI media at 10^6 cells/ml. 100 μl of resuspended cells are added to each well, which contain 100 μl of a test compound. Test compounds are prepared at twice the final concentration. Final DMSO concentration is no more than 0.5% (v/v). Cells are preincubated with compound for 30 minutes at 37° C., 5% CO2 prior to stimulation with lipopolysaccharide (LPS) (Sigma L-2880, 4 mg/ml stock in PBS). The final LPS concentration in each well is 10 or 30 μg/ml for TNFα and IL-1β release, respectively. Unstimulated control cell suspensions receive PBS vehicle only. Cell mixtures are incubated for 18 or 48 hours for TNFα and IL-1β release, respectively. 150 μl of supernatants are taken and transferred to a fresh plate and stored at −20° C. until further analysis.

[2] = molecular target: T1, p38α (Homo sapiens, UniProt Q16539); experiment: p38 MAP Kinase assay, ATF2 phosphorylation (ELISA); type: biochemical; conditions: 40 μM ATP
T1 construct: p38 MAP Kinases are recombinant human full-length proteins with an amino-terminal GST fusion; GST (N); purchased Upstate (Charlottesville, Va.); host or cells: E. coli
T1 sequence (Q16539 whole entry, the tested form may be a part): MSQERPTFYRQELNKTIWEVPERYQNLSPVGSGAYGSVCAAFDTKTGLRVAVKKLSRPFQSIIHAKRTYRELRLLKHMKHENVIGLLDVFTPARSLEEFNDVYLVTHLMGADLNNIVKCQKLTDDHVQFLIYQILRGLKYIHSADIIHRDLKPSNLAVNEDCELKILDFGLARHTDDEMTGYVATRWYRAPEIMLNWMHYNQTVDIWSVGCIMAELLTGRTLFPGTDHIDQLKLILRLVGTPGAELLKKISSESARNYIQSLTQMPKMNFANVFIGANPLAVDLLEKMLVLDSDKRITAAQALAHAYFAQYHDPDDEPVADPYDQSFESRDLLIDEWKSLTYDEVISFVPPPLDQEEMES
From the text: Compounds of the invention are screened for the ability to inhibit ATF2 phosphorylation by p38 MAP Kinase in vitro. The ability of compounds to inhibit ATF2 phosphorylation in this in vitro assay is correlated with the inhibition of p38 MAP Kinase and TNFα expression in vivo, and is therefore an indicator of potential in vivo therapeutic activity (Raingeaud, J., et al, J. Biol. Chem., 270: 7420-7426, 1995, Brinkman, M. N., et al, J. Bil. Chem. 274: 30882-30886, 1999 and Fuchs, S. Y. et al, J. Biol. Chem. 275: 12560-12564, 2000).
All kinases and the substrate ATF2 are acquired from Upstate (Charlottesville, Va.). p38 MAP Kinases are recombinant human full-length proteins with an amino-terminal GST fusion, expressed in and purified from E. coli. ATF2 is a GST fusion protein containing amino acids 19-96 of human ATF2 expressed in E. coli. All proteins were aliquoted and stored at −80° C.
p38 MAP Kinase assays are performed using an assay buffer containing 25 mM HEPES, pH 7.5, 10 mM MgCl2, 2 mM DTT, 20 mM β-glycerophosphate, 0.1 mM Na3VO4, 40 μM ATP and 1.25 μM of ATF2, together with 6 ng of p38α protein, 12 ng p38β protein, 1.5 ng p38γ, or 0.4 ng JNK2α2. Compounds are serially diluted in DMSO and 2 μL of test compound at 25× final concentration is used. The vehicle control receives DMSO only. Test compounds are pre-incubated with 20 μl of enzyme in kinase buffer (25 mM HEPES, pH 7.5, 10 mM MgCl2, 2 mM DTT, 20 mM 3-glycerophosphate and 0.1 mM Na3VO4) at room temperature for 15 minutes. […] The reactions are incubated for 30 minutes at 37° C. and terminated by the addition of 18 μl of 200 mM EDTA. An ELISA method is used to measure the phosphorylation of ATF2 at Thr 69. High binding 96-well plates (Corning 3369) are coated with 50 μl of kinase reaction for 1 hour at 37° C. The coated plates are washed with 200 μl washing buffer (25 mM Tris HCl, pH 8.3, 192 mM glycine, 0.1% SDS and 0.05% Tween-20) three times. The plates are then washed three times with SuperBlock in TBS (Pierce, 37535). After blocking, plates are incubated with 50 μl of rabbit anti-phospho-ATF2 antibody (Cell Signaling, 9221 L, 1:500) for 30 minutes at 37° C. Plates are washed three times with washing buffer prior to incubation with 50 μl HRP-conjugated goat anti-rabbit antibody (Cell Signaling, 7074, 1:500) for 30 minutes at 37° C. Plates are then washed three times with washing buffer before incubation with 50 μl of Ultra TMB-ELISA (Pierce, 34028) for 8 minutes at room temperature. Finally, 50 μl of phosphoric acid (1 M) is added to stop reactions and plate absorbance is read at 450 nm on a SpectraMax 250 plate reader.

[3] = read-out: TNFα (THP-1) IC50 (nM)
[4] = LPS 10 μg/ml, 18 hours, read-out: TNFα (THP-1) IC50

| SMILES | IC50 [1, 3] | IC50 [2] | IC50 [1, 4] |
| --- | --- | --- | --- |
| Clc1ccccc1-c1nc2occn2c1-c1ccnc(N[C@H]2CN3CCC2CC3)n1 [CCCIII] | 9 nM | 0.0125 µM | – |
| Cc1ccccc1-c1nc2occn2c1-c1ccnc(N[C@H]2CN3CCC2CC3)n1 [CCCII] | 5.5 nM | 0.0138 µM | – |
| Fc1ccc(-c2nc3occn3c2-c2ccnc(N[C@H]3CN4CCC3CC4)n2)c(F)c1 [CCCIV] | 1.7 nM | 0.0038 µM | – |
| CC(=O)N1CCC(Nc2nccc(-c3c(-c4ccc(F)cc4Cl)nc4occn34)n2)CC1 [CCCIX] | – | 0.0013 µM | 6.5 nM |
| CC(=O)N1CCC(Nc2nccc(-c3c(-c4ccccc4Cl)nc4occn34)n2)CC1 [CCCI] | – | 0.0023 µM | 38.5 nM |
| Cc1ccccc1-c1nc2occn2c1-c1ccnc(NC2CCNCC2)n1 [CCCVIII] | – | 0.01 µM | 24 nM |
| CN(C)CC(C)(C)CNc1nccc(-c2c(-c3cccc(C(F)(F)F)c3)nc3occn23)n1 [CCCVII] | – | 0.0433 µM | 136 nM |
| CC(=O)N1CCC(Nc2nccc(-c3c(-c4cccc(C(F)(F)F)c4)nc4occn34)n2)CC1 [CCCVI] | – | 0.0049 µM | 82.6 nM |
| CC(=O)N1CCC(Nc2nccc(-c3c(-c4ccccc4C)nc4occn34)n2)CC1 [CCCV] | – | 0.0048 µM | 41 nM |
| FC(F)(F)c1cccc(-c2nc3occn3c2-c2ccnc(NC3CCNCC3)n2)c1 [CCCXIII] | – | 0.0212 µM | 111 nM |
| CN1[C@@H]2CC[C@H]1C[C@@H](Nc1nccc(-c3c(-c4ccc(F)cc4F)nc4occn34)n1)C2 [CCCXII] | 1.2 nM | 0.0026 µM | – |
| Clc1ccccc1-c1nc2occn2c1-c1ccnc(NC2CCNCC2)n1 [CCCXIV] | – | 0.0145 µM | 24.6 nM |
| CS(=O)(=O)N1CCC(Nc2nccc(-c3c(-c4ccc(F)cc4Cl)nc4occn34)n2)CC1 [CCCXIX] | – | 0.0003 µM | 17.7 nM |
| CC(C)(C)OC(=O)N1CCC(Nc2nccc(-c3c(-c4cccc(C(F)(F)F)c4)nc4occn34)n2)CC1 [CCCXI] | – | 0.018 µM | 611 nM |
| CS(=O)(=O)N1CCC(Nc2nccc(-c3c(-c4ccccc4Cl)nc4occn34)n2)CC1 [CCCXVIII] | – | 0.001 µM | 18.2 nM |
| CC(=O)N1CCC(Nc2nccc(-c3c(-c4ccc(F)cc4F)nc4occn34)n2)CC1 [CCCXVII] | – | 0.003 µM | 13.7 nM |
| CS(=O)(=O)N1CCC(Nc2nccc(-c3c(-c4cccc(C(F)(F)F)c4)nc4occn34)n2)CC1 [CCCXVI] | – | 0.0009 µM | 33.7 nM |
| Cc1ccccc1-c1nc2occn2c1-c1ccnc(NC2C[C@H]3CC[C@@H](C2)N3C)n1 (stereo partly shown) [CCCXX] | 23.7 nM | 0.0139 µM | – |
| CN1[C@@H]2CC[C@H]1C[C@@H](Nc1nccc(-c3c(-c4cccc(C(F)(F)F)c4)nc4occn34)n1)C2 [CCCX] | – | 0.0093 µM | 47.9 nM |
| CC(C)[C@@H](CO)Nc1nccc(-c2c(-c3cccc(F)c3)nc3sccn23)n1 [CCIX] | – | 0.026 µM | 55.9 nM |
| CC(C)[C@@H](CO)Nc1nccc(-c2c(-c3ccc(Br)cc3)nc3sccn23)n1 [CCI] | – | 0.0757 µM | 101 nM |
| CC(=O)N1CCC(Nc2nccc(-c3c(-c4ccc(F)cc4)nc4sccn34)n2)CC1 [CCLIII] | – | 0.00165 µM | 6.27 nM |
| O=C(c1ccc(F)cc1)N1CCC(Nc2nccc(-c3c(-c4ccc(F)cc4)nc4sccn34)n2)CC1 [CCLII] | – | 0.00202 µM | 21.9 nM |
| Fc1ccc(CN2CCC(Nc3nccc(-c4c(-c5ccc(F)cc5)nc5sccn45)n3)CC2)cc1 [CCLIV] | – | 0.0302 µM | 345 nM |

| SMILES | IC50 [1, 3] | IC50 [2] | IC50 [1, 4] |
| --- | --- | --- | --- |
| C[C@@H](Nc1nccc(-c2c(-c3ccc(F)cc3)nc3sccn23)n1)C(N)=O [CCLIX] | – | 0.0222 µM | 47.7 nM |
| OC(CNc1nccc(-c2c(-c3ccc(F)cc3)nc3sccn23)n1)COc1ccccc1 (stereo not shown) [CCLI] | – | 0.0143 µM | 84.9 nM |
| Fc1ccc(-c2nc3sccn3c2-c2ccnc(NCCN3CCN(Cc4ccccc4)CC3)n2)cc1 [CCLVIII] | – | 0.0577 µM | 643 nM |
| CC(CN(C)C)Nc1nccc(-c2c(-c3ccc(F)cc3)nc3sccn23)n1 (stereo not shown) [CCLVII] | – | 0.0254 µM | 38.6 nM |
| O=C(Nc1ccc(F)cc1)N1CCC(Nc2nccc(-c3c(-c4ccc(F)cc4)nc4sccn34)n2)CC1 [CCLVI] | – | 0.00107 µM | 9.68 nM |
| CCNC(=O)N1CCC(Nc2nccc(-c3c(-c4ccc(F)cc4)nc4sccn34)n2)CC1 [CCLV] | – | 0.00212 µM | 10.8 nM |
| CC(C)(CNC(=O)OC(C)(C)C)CNc1nccc(-c2c(-c3ccc(F)cc3)nc3sccn23)n1 [CCLXIII] | – | 0.00585 µM | 23.3 nM |
| CC(C)(C)OC(=O)N1CCCC(Nc2nccc(-c3c(-c4ccc(F)cc4)nc4sccn34)n2)C1 (stereo not shown) [CCLXII] | – | 0.0298 µM | 196 nM |
| COc1cccc(-c2nc3sccn3c2-c2nc(SC)ncc2-c2ccccc2)c1 [CCXXXIV] | – | – | > 10000 nM |
| c1ccc(CNc2nccc(-c3c(-c4ccccc4)nc4sccn34)n2)cc1 [CXXXI] | – | 0.0285 µM | – |
| c1ccc(-c2nc3sccn3c2-c2ccnc(NCc3cccs3)n2)cc1 [CXXXVIII] | – | 0.0102 µM | – |
| c1ccc(-c2nc3sccn3c2-c2ccnc(NCC3CCCCC3)n2)cc1 [CXXXVII] | – | 0.0657 µM | – |
| Fc1ccc(CNc2nccc(-c3c(-c4ccccc4)nc4sccn34)n2)cc1 [CXXXVI] | – | 0.15 µM | – |
| c1ccc(-c2nc3sccn3c2-c2ccnc(N3CCCCC3)n2)cc1 [CXXXV] | – | 0.396 µM | – |
| CSc1nccc(-c2c(-c3ccccc3)nc3sccn23)n1 [CXXX] | – | 0.228 µM | – |
| CN1CCCC1CCNc1nccc(-c2c(-c3ccc(F)cc3)nc3occn23)n1 (stereo not shown) [LXI] | – | 0.65 µM | – |
| Cc1csc(Nc2nccc(-c3c(-c4ccc(F)cc4)nc4occn34)n2)n1 [LXXII] | – | 0.664 µM | – |
| CSc1nc(Nc2nccc(-c3c(-c4ccc(F)cc4)nc4occn34)n2)n[nH]1 [LXXVII] | – | 0.529 µM | – |
| CNCCNc1nccc(-c2c(-c3ccc(F)cc3)nc3occn23)n1 [XCII] | – | 3.33 µM | – |
| CN(CCO)c1nccc(-c2c(-c3ccc(F)cc3)nc3occn23)n1 [XCVI] | – | 0.969 µM | – |
| NC1CCN(c2nccc(-c3c(-c4ccc(F)cc4)nc4occn34)n2)CC1 [XC] | – | 0.866 µM | – |
| CS(=O)(=O)c1nccc(-c2c(-c3ccc(F)cc3)nc3occn23)n1 [XI, 6-(4-fluorophenyl)-5-[2-(methylsulfonyl)pyrimidin-4-yl]imidazo[2,1-b][1,3]oxazole] | – | 4.43 µM | – |
| OCC(CO)Nc1nccc(-c2c(-c3ccc(F)cc3)nc3occn23)n1 [XIII] | – | 0.013 µM | – |

Reference: US20070270418A1, “Inhibitors of P38 and Methods of Using the Same” (priority 2003, published 2007)
